Among the data in patent US10526294B2, “Pyrrolobenzodiazepines and conjugates thereof” (priority 2016, dated 2020) are IC50 values, retold here.

Assay type in all cases: cell-based
One test deals with BT474 cells. The test can be described thus: Cell viability assay (CellTiter-Glo), BT474. The conditions noted are these: Homo sapiens, BT-474, HER2 expressing cells, 72 h. The method, then: (§1) Cell Viability Assay for Antibody-Polymer-Drug Conjugates.
(§2) PBD compounds and conjugates thereof were evaluated for their antiproliferation properties in tumor cell lines in vitro using CellTiter-Glo® (Promega Corp). Cells were plated in black walled 96-well plate and allowed to adhere overnight at 37° C. in a humidified atmosphere of 5% CO2. BT474, SKBR3, NCI-N87 cells (HER2 expressing cells), JIMT1 cells (HER2 medium expression level cells) and MCF7 cells (HER2 low expressing levels cells) and were plated at a density of 5,000 cells per well. The next day the medium was replaced with 50 μL fresh medium and 50 μL of 2× stocks of PBD compounds or antibody-PBD conjugate were added to appropriate wells, mixed and incubated for 72 h. CellTiter-Glo® reagent was added to the wells at room temperature and the luminescent signal was measured after 10 min using a SpectraMax M5 plate reader (Molecular Devices). Dose response curves were generated using SoftMax Pro software. IC50 values were determined from four-parameter curve fitting.
For orientation: ATP-based viability assays read luminescence as a measure of living cells.

A further test relates to JIMT1 cells. Briefly: Cell viability assay (CellTiter-Glo), JIMT1. The conditions noted are these: Homo sapiens, JIMT-1, HER2 medium expression level cells, 72 h. On the procedure:
as §1, §2

Another test has as its system NCI-N87 cells. Briefly: Cell viability assay (CellTiter-Glo), NCI-N87. The conditions noted are these: Homo sapiens, HER2 expressing cells, 72 h. The method, then:
as §1, §2

The test system of the next test is SKBR3 cells. Briefly: Cell viability assay (CellTiter-Glo), SKBR3. As to conditions: Homo sapiens, SK-BR-3, HER2 expressing cells, 72 h. On the procedure: as §1, §2
The next test concerns MCF7 cells. The test can be described thus: Cell viability assay (CellTiter-Glo), MCF7. The conditions noted are these: Homo sapiens, HER2 low expressing levels cells, 72 h. On the procedure:
as §1, §2

The IC50 is the concentration that inhibits the measured activity by half. A low value points to inhibition by little substance.

As for `C=C1C[C@H]2C=Nc3cc(OCCCC(=O)Nc4cn(C)c(C(=O)Nc5ccc(-c6nc7ccc(N)cc7[nH]6)cc5)n4)c(OC)cc3C(=O)N2C1` [Compound 9, (S,Z)—N-(4-(5-amino-1H-benzo[d]imidazol-2-yl)phenyl)-4-(4-(7-methoxy-2-methylene-5-oxo-2,3,5,11a-tetrahydro-1H-benzo[e]pyrrolo[1,2-a][1,4]diazepin-8-yloxy)butanamido)-1-methyl-1H-imidazole-2-carboxamide], the IC50 was 4 nM with BT474 cells (PBD compounds (Table I)); 0.7 nM in the test with JIMT1 cells (PBD compounds (Table I)); 0.9 nM with NCI-N87 cells (PBD compounds (Table I)); 0.3 nM with SKBR3 cells (PBD compounds (Table I)); 1.6 nM in the test on MCF7 cells (PBD compounds (Table I)).

As for `C=C1CC2C=Nc3cc(OCCCC(=O)Nc4cn(C)c(C(=O)Nc5ccc(-c6cc(C(=O)n7ccc8cc(N)ccc87)n(C)c6)cc5)n4)c(OC)cc3C(=O)N2C1` (centres unmarked) [Compound 105, (Z)—N-(4-(5-(5-amino-1H-indole-1-carbonyl)-1-methyl-1H-pyrrol-3-yl)phenyl)-4-(4-(7-methoxy-2-methylene-5-oxo-2,3,5,11a-tetrahydro-1H-benzo[e]pyrrolo[1,2-a][1,4]diazepin-8-yloxy)butanamido)-1-methyl-1H-imidazole-2-carboxamide], the IC50 in the test with BT474 cells (conjugates (Table II)) amounted to 0.09 nM; with JIMT1 cells (conjugates (Table II)), 0.04 nM; in the test on NCI-N87 cells (conjugates (Table II)) it was 0.03 nM; in the test on SKBR3 cells (conjugates (Table II)) it was 0.007 nM; with MCF7 cells (conjugates (Table II)), 0.03 nM.

For `COc1cc2c(cc1OCCCC(=O)Nc1cc(C(=O)Nc3ccc(-c4cc(C(=O)NCCCO)n(C)c4)cc3)n(C)c1)N=C[C@@H]1CCCN1C2=O` [Compound 38, (S,Z)—N-(3-hydroxypropyl)-4-(4-(4-(4-(7-methoxy-5-oxo-2,3,5,11a-tetrahydro-1H-benzo[e]pyrrolo[1,2-a][1,4]diazepin-8-yloxy)butanamido)-1-methyl-1H-pyrrole-2-carboxamido)phenyl)-1-methyl-1H-pyrrole-2-carboxamide], the IC50 in the test on BT474 cells (PBD compounds (Table I)) amounted to 7 nM; with JIMT1 cells (PBD compounds (Table I)), 3 nM; with NCI-N87 cells (PBD compounds (Table I)), 4 nM; in the test on SKBR3 cells (PBD compounds (Table I)), 2 nM; with MCF7 cells (PBD compounds (Table I)), 8 nM.

As to `C=C1C[C@H]2C=Nc3cc(OCCCC(=O)Nc4cn(C)c(C(=O)Nc5ccc(-c6cc(C(=O)OCCCN)n(C)c6)cc5)n4)c(OC)cc3C(=O)N2C1` [Compound 41, (S,Z)-3-aminopropyl 4-(4-(4-(4-(7-methoxy-2-methylene-5-oxo-2,3,5,11a-tetrahydro-1H-benzo[e]pyrrolo[1,2-a][1,4]diazepin-8-yloxy)butanamido)-1-methyl-1H-imidazole-2-carboxamido)phenyl)-1-methyl-1H-pyrrole-2-carboxylate], the IC50 in the test on BT474 cells (PBD compounds (Table I)) is 300 nM; in the test on JIMT1 cells (PBD compounds (Table I)), 0.8 nM; with NCI-N87 cells (PBD compounds (Table I)), 6.3 nM; with SKBR3 cells (PBD compounds (Table I)) it was 3 nM; with MCF7 cells (PBD compounds (Table I)) it was 140 nM.

In the case of `C=C1C[C@H]2C=Nc3cc(OCCCC(=O)Nc4cn(C)c(C(=O)Nc5ccc(-c6cc(C(=O)NC[C@H](C)O)n(C)c6)cc5)n4)c(OC)cc3C(=O)N2C1` [Compound 42, N-(4-(5-((S)-2-hydroxypropylcarbamoyl)-1-methyl-1H-pyrrol-3-yl)phenyl)-4-(4-((S,Z)-7-methoxy-2-methylene-5-oxo-2,3,5,11a-tetrahydro-1H-benzo[e]pyrrolo[1,2-a][1,4]diazepin-8-yloxy)butanamido)-1-methyl-1H-imidazole-2-carboxamide], the IC50 was determined as 5.1 nM with BT474 cells (PBD compounds (Table I)); 1.2 nM in the test with JIMT1 cells (PBD compounds (Table I)); 1.4 nM with NCI-N87 cells (PBD compounds (Table I)); 1.4 nM with SKBR3 cells (PBD compounds (Table I)); 4.5 nM in the test with MCF7 cells (PBD compounds (Table I)).

With `C=C1C[C@H]2C=Nc3cc(OCCCC(=O)Nc4cn(C)c(C(=O)Nc5ccc(-c6nc7cc(OC)ccc7[nH]6)cc5)n4)c(OC)cc3C(=O)N2C1` [Compound 106, (S,Z)—N-(4-(5-methoxy-1H-benzo[d]imidazol-2-yl)phenyl)-4-(4-(7-methoxy-2-methylene-5-oxo-2,3,5,11a-tetrahydro-1H-benzo[e]pyrrolo[1,2-a][1,4]diazepin-8-yloxy)butanamido)-1-methyl-1H-imidazole-2-carboxamide], the IC50 turned out to be 0.73 nM with BT474 cells (conjugates (Table II)); 0.17 nM with JIMT1 cells (conjugates (Table II)); 0.21 nM with NCI-N87 cells (conjugates (Table II)); 0.13 nM in the test with SKBR3 cells (conjugates (Table II)); 0.84 nM with MCF7 cells (conjugates (Table II)).

For `C=C1CC2C=Nc3cc(OCCCC(=O)Nc4cn(C)c(C(=O)Nc5ccc(-c6cc(C(=O)n7ccc8cc(OC)ccc87)n(C)c6)cc5)n4)c(OC)cc3C(=O)N2C1` (centres unmarked) [Compound 107, (Z)—N-(4-(5-(5-methoxy-1H-indole-1-carbonyl)-1-methyl-1H-pyrrol-3-yl)phenyl)-4-(4-(7-methoxy-2-methylene-5-oxo-2,3,5,11a-tetrahydro-1H-benzo[e]pyrrolo[1,2-a][1,4]diazepin-8-yloxy)butanamido)-1-methyl-1H-imidazole-2-carboxamide], the IC50 in the test with BT474 cells (conjugates (Table II)) came out at 0.16 nM; in the test on JIMT1 cells (conjugates (Table II)) it was 0.03 nM; with NCI-N87 cells (conjugates (Table II)) it was 0.03 nM; in the test with SKBR3 cells (conjugates (Table II)), 0.02 nM; with MCF7 cells (conjugates (Table II)), 0.07 nM.

As to `C=C1CC2C=Nc3cc(OCCCC(=O)Nc4cn(C)c(C(=O)Nc5ccc(-c6cc(C(=O)n7ccc8cc(C(=O)OC)ccc87)n(C)c6)cc5)n4)c(OC)cc3C(=O)N2C1` (centres unmarked) [Compound 109, methyl 1-(4-(4-(4-(4-((7-methoxy-2-methylene-5-oxo-2,3,5,11a-tetrahydro-1H-benzo[e]pyrrolo[1,2-a][1,4]diazepin-8-yl)oxy)butanamido)-1-methyl-1H-imidazole-2-carboxamido)phenyl)-1-methyl-1H-pyrrole-2-carbonyl)-1H-indole-5-carboxylate], the 50% inhibitory concentration (IC50) in the test on BT474 cells (conjugates (Table II)) was found to be 0.09 nM; with JIMT1 cells (conjugates (Table II)), 0.28 nM; with NCI-N87 cells (conjugates (Table II)) it was 0.14 nM; with MCF7 cells (conjugates (Table II)), 0.18 nM.

Consider `C=C1C[C@H]2C=Nc3cc(OCCCC(=O)Nc4cn(C)c(C(=O)Nc5ccc(-c6cc(C(=O)NCCCO)n(C)c6)cc5)n4)c(OC)cc3C(=O)N2C1` [Compound 39, (S)—N-(4-(5-((3-hydroxypropyl)carbamoyl)-1-methyl-1H-pyrrol-3-yl)phenyl)-4-(4-((7-methoxy-2-methylene-5-oxo-2,3,5,11a-tetrahydro-1H-benzo[e]pyrrolo[1,2-a][1,4]diazepin-8-yl)oxy)butanamido)-1-methyl-1H-imidazole-2-carboxamide], for which the IC50 in the test with BT474 cells (PBD compounds (Table I)) came to 2.4 nM; in the test on JIMT1 cells (PBD compounds (Table I)), 0.9 nM; in the test with NCI-N87 cells (PBD compounds (Table I)), 0.4 nM; in the test on SKBR3 cells (PBD compounds (Table I)) it was 0.6 nM.

For `C=C1C[C@H]2C=Nc3cc(OCCCC(=O)Nc4cn(C)c(C(=O)Nc5ccc(-c6cc7cc(OC)ccc7[nH]6)cc5)n4)c(OC)cc3C(=O)N2C1` [Compound 108, (S,Z)—N-(4-(5-methoxy-1H-indol-2-yl)phenyl)-4-(4-(7-methoxy-2-methylene-5-oxo-2,3,5,11a-tetrahydro-1H-benzo[e]pyrrolo[1,2-a][1,4]diazepin-8-yloxy)butanamido)-1-methyl-1H-imidazole-2-carboxamide], the IC50 is 0.02 nM in the test on BT474 cells (conjugates (Table II)), 0.04 nM in the test on NCI-N87 cells (conjugates (Table II)), 0.05 nM in the test on SKBR3 cells (conjugates (Table II)) and 0.43 nM in the test with MCF7 cells (conjugates (Table II)).
